Laboratory results from paper PMC12391121, “Identification and validation of the VEGF/p38MAPK/HSP27 pro-tumor inflammatory pathway: screening of active components from Patrinia villosa and evaluation of their drug-likeness” (Frontiers in Immunology, 2025).

Key:
[1] = target: T1, HSP27 (Homo sapiens, UniProt P04792); test: microscale thermophoresis; assay type: binding
T1 construct: gene HSPB1; commercial recombinant human protein; labelled with Monolith RED-NHS
Source text: microscale thermophoresis on HSP27

[2] = target: T2, p38MAPK (Homo sapiens, UniProt Q16539); test: microscale thermophoresis; assay type: binding
T2 construct: gene MAPK14; commercial recombinant human protein; labelled with Monolith RED-NHS
T2 sequence (Q16539 2-360): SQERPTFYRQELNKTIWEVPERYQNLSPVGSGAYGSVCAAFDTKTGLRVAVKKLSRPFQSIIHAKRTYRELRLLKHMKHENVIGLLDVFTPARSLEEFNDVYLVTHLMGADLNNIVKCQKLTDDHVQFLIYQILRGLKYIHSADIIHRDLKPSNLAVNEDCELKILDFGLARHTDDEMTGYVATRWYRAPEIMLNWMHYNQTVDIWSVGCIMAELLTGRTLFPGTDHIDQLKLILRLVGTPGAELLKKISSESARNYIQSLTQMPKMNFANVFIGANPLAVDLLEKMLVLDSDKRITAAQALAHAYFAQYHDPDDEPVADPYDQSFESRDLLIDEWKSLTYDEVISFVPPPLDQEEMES

T1 sequence (P04792 whole entry): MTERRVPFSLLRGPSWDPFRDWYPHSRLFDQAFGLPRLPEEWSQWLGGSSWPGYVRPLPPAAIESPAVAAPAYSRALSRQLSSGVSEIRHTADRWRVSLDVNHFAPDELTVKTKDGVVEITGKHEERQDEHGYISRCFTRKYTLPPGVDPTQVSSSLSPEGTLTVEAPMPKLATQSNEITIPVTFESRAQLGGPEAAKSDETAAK

SMILES | Kd [1] [µM] | Kd [2] [µM]
O=C(/C=C/c1ccc(O)c(O)c1)O[C@@H]1[C@H](O)C[C@@](O)(C(=O)O)C[C@H]1OC(=O)/C=C/c1ccc(O)c(O)c1 [4,5-Dicqa] | 3.64 | 1.71
C[C@@H]1O[C@@H](OC[C@H]2O[C@@H](Oc3c(-c4ccc(O)cc4)oc4cc(O)cc(O)c4c3=O)[C@H](O)[C@@H](O)[C@@H]2O)[C@H](O)[C@H](O)[C@H]1O [Nicotiflorin] | 4.47 | 1.4
C[C@@H]1O[C@@H](OC[C@H]2O[C@@H](Oc3c(-c4ccc(O)c(O)c4)oc4cc(O)cc(O)c4c3=O)[C@H](O)[C@@H](O)[C@@H]2O)[C@H](O)[C@H](O)[C@H]1O [Rutin] | 3.76 | 1.27
C[S+]([O-])c1ccc(-c2nc(-c3ccncc3)c(-c3ccc(F)cc3)[nH]2)cc1 (stereo not shown) [SB203580] | 0.915 | –
